Laboratory results published in patent US11780849B2, “Imino sulfanone inhibitors of ENPP1” (Volastra Therapeutics, Inc., priority 2020, dated 2023).
Read-outs that look alike come from different tables or passages of the source.

Molecular target: ENPP-1 ECD (Homo sapiens (Human), UniProt P22413)
Assay: Assay 2: inhibition of ENPP1 hydrolysis of 2′,3′-cGAMP (AMP-Glo, […] enzyme)
[1] = Assay 2 (KI), inhibition of ENPP1 hydrolysis of 2′,3′-cGAMP, no unit in Table 18 (Table 17 legend for this assay uses nM)
[2] = read-out: Assay 2 (KI), inhibition of ENPP1 hydrolysis of 2′,3′-cGAMP, no unit in Table 18 (Table 17 legend for this assay uses nM)
[3] = Assay 2 (KI), ENPP1 hydrolysis of 2′,3′-cGAMP, AMP-Glo, […] ENPP-1, 24 μM cGAMP
[4] = read-out: Assay 2 (KI), ENPP1 hydrolysis of 2′,3′-cGAMP, AMP-Glo, […] ENPP-1, 24 μM cGAMP

Sequence of ENPP-1 ECD (P22413 98-925): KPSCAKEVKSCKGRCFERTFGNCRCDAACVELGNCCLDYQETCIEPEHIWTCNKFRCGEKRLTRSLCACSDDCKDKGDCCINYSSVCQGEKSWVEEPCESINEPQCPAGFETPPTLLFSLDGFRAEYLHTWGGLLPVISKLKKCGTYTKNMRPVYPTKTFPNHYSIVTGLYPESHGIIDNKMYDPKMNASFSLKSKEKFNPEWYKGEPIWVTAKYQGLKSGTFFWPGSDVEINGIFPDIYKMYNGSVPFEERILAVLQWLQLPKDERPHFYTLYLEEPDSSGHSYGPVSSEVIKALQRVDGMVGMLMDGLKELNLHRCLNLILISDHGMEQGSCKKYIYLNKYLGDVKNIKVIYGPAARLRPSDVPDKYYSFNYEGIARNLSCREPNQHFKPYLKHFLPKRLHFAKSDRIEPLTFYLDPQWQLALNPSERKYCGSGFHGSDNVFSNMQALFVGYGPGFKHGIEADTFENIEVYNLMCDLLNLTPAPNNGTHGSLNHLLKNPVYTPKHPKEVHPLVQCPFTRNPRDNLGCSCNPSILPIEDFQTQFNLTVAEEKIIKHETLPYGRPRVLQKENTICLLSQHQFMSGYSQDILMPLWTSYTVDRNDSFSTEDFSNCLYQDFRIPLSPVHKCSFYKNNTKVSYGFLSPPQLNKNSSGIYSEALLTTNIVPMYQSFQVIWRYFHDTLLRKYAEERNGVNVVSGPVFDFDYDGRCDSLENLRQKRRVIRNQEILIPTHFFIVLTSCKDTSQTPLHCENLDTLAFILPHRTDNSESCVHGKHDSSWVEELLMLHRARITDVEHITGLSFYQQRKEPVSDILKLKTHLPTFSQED
Description: Assay 2: Compared to the conditions in Assay 1, this assay has a larger dynamic range and ensures the system is under steady-state conditions by reducing the enzyme concentration in the assay.
Test compounds were plated in a 3× dilution scheme in a 384 well plate. […] AMP Detection solution (10 μL) was added to each well, the plate centrifuged and incubated for 60 min.

Ki [1] [nM]	Ki [2] [nM]	Compound	further results
16	–	COc1cccc2c(N3CCC(CS(C)(=N)=O)CC3)ccnc12 (stereo not drawn) [Compound 180, imino({[1-(8-methoxyquinolin-4-yl)piperidin-4-yl]methyl})methyl-λ^6-sulfanone]	–
3.8	–	COc1cccc2c(N3CCC4(CC3)CCN(S(C)(=N)=O)C4)ncnc12 (stereo not drawn) [Compound 215, imino[8-(8-methoxyquinazolin-4-yl)-2,8-diazaspiro[4.5]decan-2-yl]methyl-λ^6-sulfanone]	–
110	–	COc1cccc2c(N3CCC4(CC3)CCN4S(C)(=N)=O)ncnc12 (stereo not drawn) [Compound 214, imino[7-(8-methoxyquinazolin-4-yl)-1,7-diazaspiro[3.5]nonan-1-yl]methyl-λ^6-sulfanone]	–
–	39	COc1cc2nccc(OC[C@@H]3CCN([S@@](C)(=N)=O)C3)c2cc1F [Compound 229a]	–
–	2.8	COc1cccc2c(N3CCC(O)(C[S@](C)(=N)=O)CC3)ncnc12 [Compound 185b]	–
–	1.5	COc1cc2nccc(N3CCC4(CC3)CCN([S@](=N)(=O)C3CC3)C4)c2cc1F [Compound 218b]	–
–	31	COc1cc2nccc(N3CCC(CC[S@](C)(=N)=O)CC3)c2cc1Cl [Compound 141b]	Ki [4]: 3 to 300 nM
0.091	–	COc1cc2nncc(N3CCC4(CC3)CCN(S(C)(=N)=O)C4)c2cc1Cl (stereo not drawn) [Compound 219, [8-(6-chloro-7-methoxycinnolin-4-yl)-2,8-diazaspiro[4.5]decan-2-yl](imino)methyl-λ^6-sulfanone]	–
–	2	COc1cc2nncc(N3CCC4(CC3)CCN([S@@](C)(=N)=O)C4)c2cc1Cl [Compound 219b]	–
8	–	COc1ccc2c(OC3CCN(S(C)(=N)=O)CC3)ccnc2c1 (stereo not drawn) [Compound 235, imino({4-[(7-methoxyquinolin-4-yl)oxy]piperidin-1-yl})methyl-λ^6-sulfanone]	–
–	5	COc1cc2nccc(N3CCC4(CC3)CCN([S@](C)(=N)=O)C4)c2cc1F [Compound 205a]	–

Further lines, the compound ahead of its results:

Compound	Ki [1] [nM]	Ki [2] [nM]	further results
COc1cccc2c(N3CCC(C[S@@](=N)(=O)C4CC4)CC3)c(C#N)cnc12 [Compound 189a]	–	8.8	–
COc1cccc2c(N3CCC(C[S@@](C)(=N)=O)CC3)c(C#N)cnc12 [Compound 179a]	–	9.1	–
COc1ccc2c(OCC3CCS(=N)(=O)CC3)ccnc2c1 (single isomer, unassigned) [Compound 107a, 4-[(1-imino-1-oxido-3,4,5,6-tetrahydro-2H-thiopyran-4-yl)methoxy]-7-methoxy-quinoline]	27	–	–
COCCS(=N)(=O)c1ccc(Oc2ccnc3cc(OC)ccc23)cc1 (stereo not drawn) [Compound 122, imino(2-methoxyethyl){4-[(7-methoxyquinolin-4-yl)oxy]phenyl}-λ^6-sulfanone]	1.6	–	Ki [3]: < 3 nM
COc1ccc2c(-c3ccc4c(c3)CN(S(C)(=N)=O)CC4)ccnc2n1 (stereo not drawn) [Compound 163, imino[7-(7-methoxy-1,8-naphthyridin-4-yl)-1,2,3,4-tetrahydroisoquinolin-2-yl]methyl-λ^6-sulfanone]	21	–	Ki [3]: 3 to 300 nM
COc1cc(F)cc2c(N3CCC(CS(C)(=N)=O)CC3)ncnc12 (stereo not drawn) [Compound 183b]	–	> 150	–
CC[S@@](=N)(=O)CC1(O)CCN(c2ncnc3c(OC)cccc23)CC1 [Compound 195a]	–	0.052	–
COc1cccc2c(N3CC[C@H](C[S@](C)(=N)=O)C3)ncnc12 [Compound 238b]	–	13	–
COc1cc(F)cc2c(N3CCC(C[S@@](C)(=N)=O)CC3)ncnc12 [Compound 183a]	–	2.9	–
COc1ccc2c(-c3ccc4c(c3)CN([S@](C)(=N)=O)CC4)ccnc2c1 [Compound 52a]	–	110	Ki [4]: 3 to 300 nM
COc1ccc2c(OCC3CCS(=N)(=O)CC3)ccnc2c1 (single isomer, unassigned) [Compound 107b, 4-[(1-imino-1-oxido-3,4,5,6-tetrahydro-2H-thiopyran-4-yl)methoxy]-7-methoxy-quinoline]	74	–	–
COc1ccc2c(Oc3ccc(S(C)(=N)=O)cc3)ncnc2c1 (stereo not drawn) [Compound 167, imino({4-[(7-methoxyquinazolin-4-yl)oxy]phenyl})methyl-λ^6-sulfanone]	7.9	–	–
